Assay results published in patent publication US6653081B2, “Methods for monitoring antiretroviral therapy and guiding therapeutic decision in the treatment of HIV/AIDS” (ViroLogic, Inc., priority 2000, dated 2003).
Entries after “also recorded” stand apart in the source; their conditions may differ.

Tests used:
RTV-005738 = assay: Phenotypic susceptibility assay, RTV-005738; type: cell-based, HIV; conditions: patient 005738; for decrease in susceptibility: V245E with multiple other mutations
Excerpt: (§1) The resistance test vectors containing a functional luciferase gene cassette were constructed and host cells were transfected with the resistance test vector DNA. The resistant test vectors contained patient-derived reverse transcriptase and protease sequences that were either susceptible or resistant to the antiretroviral agents, such as nucleoside reverse transcriptase inhibitors, (NRTIs) non-nucleoside reverse transcriptase inhibitors […] protease inhibitors. The resistance test vector viral particles produced by transfecting the resistance test vector DNA into host cells, either in the presence or absence of PRIs, were used to infect target host cells grown either in the absence of NRTIs or NNRTIs, or in the presence of increasing concentrations of the drug. The amount of luciferase activity produced in infected target host cells in the presence of varying concentrations of drug was compared to the amount of luciferase produced in infected target host cells in the absence of drug. “Drug resistance” was measured as the amount of drug required to inhibit by 50% the luciferase activity detected in the absence of drug (inhibitory concentration 50%, IC50). The IC50 values were determined by plotting percent drug inhibition vs. log10 drug concentration. Stimulation of viral replication was measured as the percent increase in luciferase activity detected when infection occurs in the presence of drug as compared to in the absence of drug.
(§2) Host cells were seeded in 10-cm-diameter dishes and were transfected several days after plating with resistance test vector plasmid DNA and the envelope expression vector. Transfections were performed using a calcium-phosphate precipitation procedure. The cell culture media containing the DNA precipitate was replaced with fresh medium, from one to 24 hours, after transfection. Cell culture media containing resistance test vector viral particles was harvested one to four days after transfection and was passed through a […] filter before being used to infect target host cells, or being stored at −80° C. HIV capsid protein (p24) levels in the harvested cell culture media were determined by an EIA method as described by the manufacturer (SAIC; Frederick, Md.). Before infection, target cells (293 and 293/T) were plated in cell culture media. Control infections were performed using cell culture media from mock transfections (no DNA) or transfections containing the resistance test vector plasmid DNA without the envelope expression plasmid. One to three or more days after infection, the media was removed and cell lysis buffer (Promega) was added to each well. Cell lysates were assayed for luciferase activity (FIG. 3). The inhibitory effect of the drug was determined using the following equation:
(§3) % luciferase inhibition=1−(RLUluc[drug]÷RLUluc)×100
(§4) where RLUluc [drug] is the Relative Light Unit of luciferase activity in infected cells in the presence of drug, and RLUluc is the Relative Light Unit of luciferase activity in infected cells in the absence of drug. IC50values were obtained from the sigmoidal curves that were generated from the data by plotting the percent inhibition of luciferase activity vs. the log10 drug concentration. The percent luciferase stimulation is the negative of the % inhibition calculated using the formula above.
(§5) A resistance test vector was constructed as described in Example 1 from a virus sample obtained from patient 005738. The prior and current treatment regimens are unknown. Isolation of viral RNA and RT/PCR was used to generate a patient derived segment (PDS) that comprised viral sequences coding for all of PR and aa 1-313 of RT from both samples. The PDS were inserted into an indicator gene viral vector to generate a resistance test vector designated RTV-005738. RTV-005738 was then tested in a phenotypic assay to determine accurately and quantitatively the level of susceptibility to a panel of anti-retroviral drugs. […]

[1] = tested on: RTV-1033, RTV-008973, RTV-757, RTV-008980 and RTV-1080; assay: Phenotypic susceptibility assay, patient 1033 RTV pools; type: cell-based, HIV; conditions: range over five RTV pools of one patient
Excerpt: as §1, §2, §3, §4
Resistance test vectors were constructed as described in Example 1 from virus samples obtained from an individual patient at thirteen separate time points over a 2½-year period. This patient had been previously treated with two NRTIs (zidovudine and lamivudine) AZT, 3TC (NRTIS), and a PRI (indinavir) for a period of approximately 2 years at the time the first (97-309) and second (98-754) samples were obtained. The patient began taking a new anti-viral regimen including an NRTI (stavudine), an NNRTI (nevirapine), and two PRIs (nelfinavir and saquinavir) at the time the third sample (98-1032) was obtained. […]

RTV-014397 = assay: Phenotypic susceptibility assay, RTV-014397; type: cell-based, HIV; conditions: patient 014397; for decrease in susceptibility: 245 and 103
Excerpt: as §1, §2, §3, §4
as §5, with “014397.” for “005738.”, “RT.” for “RT from both samples.”, “RTV-014397. RTV-014397” for “RTV-005738. RTV-005738”

RTV-V245E = assay: Phenotypic susceptibility assay, RTV-V245E; type: cell-based, HIV-1; conditions: site-directed V245E alone
Excerpt: as §1, §2, §3, §4
(§6) A resistance test vector containing a single mutation, V245E, (RTV-V245E) was constructed and tested in the phenotypic assay described earlier. The results were compared to those determined using a genetically defined resistance test vector that was wild type at position 245. We determined the pattern of phenotypic susceptibility to the NNRTIs, delavirdine, nevirapine and efavirenz, in RTV-V245E.

RTV-1033-3 = assay: Phenotypic susceptibility assay, RTV-1033-3; type: cell-based, HIV; conditions: single clone from the RTV-1033 pool
Excerpt: as §1, §2, §3, §4
A single clone (RTV-1033-3) was obtained from the patient-derived RTV pool that had mutations and phenotypic patterns of NNRTI susceptibility and drug-dependent stimulation of viral replication characteristic of the RTV-1033 pool. The RTV-1033-3 had the following mutations present in the revere transcriptase: V35I, D67N, T69D, K70R, V106A, D123G, V189L, T200A, I202T, H208Y, R211K, T215F, D218E, K219Q, H221Y, L228H, L283I, R284K, T286A, V293I and E297K.

RTV-K103N = assay: Phenotypic susceptibility assay, RTV-K103N; type: cell-based, HIV-1; conditions: site-directed K103N alone
Excerpt: as §1, §2, §3, §4
as §6, with “K103N, (RTV-K103N)” for “V245E, (RTV-V245E)”, “positions 103.” for “position 245.”, “RTV-K103N.” for “RTV-V245E.”

Row | Structure (SMILES) | drug-dependent stimulation of viral replication (RTV-005738) [%] | decrease in susceptibility (RTV-005738) [fold] | drug-dependent stimulation of viral replication [1] [%] | reductions in susceptibility [1] [fold] | drug-dependent stimulation of viral replication (RTV-014397) [%] | decrease in susceptibility (RTV-014397) [fold] | drug-dependent stimulation of viral replication (RTV-V245E) | reductions in susceptibility compared to wild type control RTV (RTV-V245E) | drug-dependent stimulation of viral replication (RTV-1033-3) [%] | reductions in susceptibility (RTV-1033-3) [fold] | drug-dependent stimulation of viral replication (RTV-K103N) | reductions in susceptibility compared to wild type control RTV (RTV-K103N) [fold]
1 | CC(C)Nc1cccnc1N1CCN(C(=O)c2cc3cc(NS(C)(=O)=O)ccc3[nH]2)CC1 [delavirdine] | ~40 | 63 | 20 to 180 | 3 to 18 | ~100 | > 250 | no drug-dependent stimulation | no reductions; also recorded: no significant reduction | 190 | 27 | no drug-dependent stimulation | 87
2 | O=C1Nc2ccc(Cl)cc2[C@@](C#CC2CC2)(C(F)(F)F)O1 [efavirenz] | ~20 | 17 | 30 to 170 | 16 to 300 | ~70 | > 450 | no drug-dependent stimulation | no reductions; also recorded: no significant reduction | 180 | > 450 | no drug-dependent stimulation | 29
3 | Cc1ccnc2c1NC(=O)c1cccnc1N2C1CC1 [nevirapine] | ~20 | > 600 | 40 to 250 | > 600 | ~100 | > 600 | no drug-dependent stimulation | no reductions; also recorded: no significant reduction | 200 | > 600 | no drug-dependent stimulation | 67
